Patent publication US20250353812A1, “2,6-DIBENZYLIDENECYCLOHEXANONE OXIME COMPOUND AND PREPARATION METHOD THEREFOR AND USE THEREOF” (WENZHOU MEDICAL UNIVERSITY, priority 2022, published 2025)

How the values were obtained:
TNF-α = experiment: Inhibition of TNF-α release from J774A.1 macrophages stimulated by LPS (ELISA); format: cell-based; conditions: 10 μM compound pretreatment 2 h, then 0.5 μg/mL LPS 22 h, LPS control = 100, FIG. 2
Procedure: (§1) The present invention tested the dose-effect relationship of some of the compounds of Examples in inhibiting the release of IL-6 and TNF-α from J774A.1 macrophages stimulated by LPS. The specific method is as follows: 1.2×10^6 […] macrophages were cultured by DMEM culture solution at 37° C., the culture solution was renewed after 24 h, the tested example compound (at a final concentration of 10 μM) was added for pretreatment for 2 h and then continuously treated by 0.5 μg/mL of LPS for 22 h, the culture solution was collected, and the content of IL-6 and TNF-α was detected by ELISA method. The total protein concentration was measured by collecting cells, the ELISA results were divided by the corresponding total protein concentration and calibrated by the IL-6 and TNF-α content of LPS control group as 100, and the average and error values were calculated.

IL-6 = experiment: Inhibition of IL-6 release from J774A.1 macrophages stimulated by LPS (ELISA); format: cell-based; conditions: 10 μM compound pretreatment 2 h, then 0.5 μg/mL LPS 22 h, LPS control = 100, FIG. 1
Procedure: as §1

| SMILES | inhibitory effect on the release of TNF-α (TNF-α) | inhibitory effect on the release of IL-6 (IL-6) |
| --- | --- | --- |
| Fc1cccc(CCON=C2/C(=C/c3ccccc3C(F)(F)F)CCC/C2=C\c2ccccc2C(F)(F)F)c1 [Example 24, 2,6-(E,E)-(2-(trifluoromethyl)benzylidene)cyclohexan-1-one-3-(fluorophenethyl)oxime] | significant inhibitory effect | – |
| FC(F)(F)c1ccccc1/C=C1\CCC/C(=C\c2ccccc2C(F)(F)F)C1=NOCCN1CCCC1 [Example 5] | – | significant inhibitory effect |
| CC(C)ON=C1/C(=C/c2ccccc2F)CCC/C1=C\c1ccccc1F [Example 33, 2,6-(E,E)-(2-(fluoro)benzylidene)cyclohexan-1-one isopropyl oxime] | significant inhibitory effect | significant inhibitory effect |
| FC(F)(F)c1ccccc1/C=C1\CCC/C(=C\c2ccccc2C(F)(F)F)C1=NOCCCN1CCCC1 [Example 6, 2,6-(E,E)-(2-(trifluoromethyl)benzylidene)cyclohexan-1-one-3-(pyrrolidin-1-yl)propyl oxime] | – | significant inhibitory effect |
| FC(F)(F)c1ccccc1/C=C1\CCC/C(=C\c2ccccc2C(F)(F)F)C1=NOCCC1OCCO1 [Example 29] | significant inhibitory effect | – |
| FC(F)(F)c1ccccc1/C=C1\CCC/C(=C\c2ccccc2C(F)(F)F)C1=NOCc1c(Cl)cccc1Cl [Example 20, 2,6-(E,E)-(2-(trifluoromethyl)benzylidene)cyclohexan-1-one-2,6-dichlorobenzyl oxime] | – | significant inhibitory effect |
| FC(F)(F)c1ccccc1/C=C1\CCC/C(=C\c2ccccc2C(F)(F)F)C1=NOCC1CCCO1 (stereo not shown) [Example 26, 2,6-(E,E)-(2-(trifluoromethyl)benzylidene)cyclohexan-1-one-((tetrahydrofuran-2-yl)methyl)oxime] | significant inhibitory effect | – |
| Oc1ccc(/C=C2\CCC/C(=C\c3ccc(O)cc3)C2=NOCC2CCCC2)cc1 [Example 37, 2,6-(E,E)-(4-(hydroxy)benzylidene)cyclohexan-1-one cyclopentylmethyl oxime] | significant inhibitory effect | significant inhibitory effect |
| FC(F)(F)c1ccccc1/C=C1\CCC/C(=C\c2ccccc2C(F)(F)F)C1=NOCC1CCOCC1 [Example 28, 2,6-(E,E)-(2-(trifluoromethyl)benzylidene)cyclohexan-1-one-(tetrahydro-2H-pyran-4-yl) methyl oxime] | significant inhibitory effect | significant inhibitory effect |
| COc1cccc(CON=C2/C(=C/c3ccccc3C(F)(F)F)CCC/C2=C\c2ccccc2C(F)(F)F)c1 [Example 16, 2,6-(E,E)-(2-(trifluoromethyl)benzylidene)cyclohexan-1-one-3-methoxybenzyl oxime] | – | significant inhibitory effect |
| FC(F)(F)c1ccccc1/C=C1\CCC/C(=C\c2ccccc2C(F)(F)F)C1=NOCCN1CCOCC1 [Example 7, 2,6-(E,E)-(2-(trifluoromethyl)benzylidene)cyclohexan-1-one-2-(morpholinoethyl)oxime] | significant inhibitory effect | significant inhibitory effect |
| Cc1cccc(CCON=C2/C(=C/c3ccccc3C(F)(F)F)CCC/C2=C\c2ccccc2C(F)(F)F)c1 [Example 22, 2,6-(E,E)-(2-(trifluoromethyl)benzylidene)cyclohexan-1-one-3-(methylphenylethyl)oxime] | significant inhibitory effect | – |
| CC(C)ON=C1/C(=C/c2ccccc2C(F)(F)F)CCC/C1=C\c1ccccc1C(F)(F)F [Example 10, 2,6-(E,E)-(2-(trifluoromethyl)benzylidene)cyclohexan-1-one isopropyl oxime] | – | significant inhibitory effect |
| FC(F)(F)c1ccccc1/C=C1\CCC/C(=C\c2ccccc2C(F)(F)F)C1=NOCC1OCCO1 [Example 27, 2,6-(E,E)-(2-(trifluoromethyl)benzylidene)cyclohexan-1-one-((1,3-dioxolan-2-yl)methyl)oxime] | significant inhibitory effect | significant inhibitory effect |
| FC(F)(F)c1ccccc1/C=C1\CCC/C(=C\c2ccccc2C(F)(F)F)C1=NOCC1CCCC1 [Example 13, 2,6-(E,E)-(2-(trifluoromethyl)benzylidene)cyclohexan-1-one cyclopentylmethyl oxime] | – | significant inhibitory effect |
| COCCON=C1/C(=C/c2ccc(OC)cc2)CCC/C1=C\c1ccc(OC)cc1 [Example 35, 2,6-(E,E)-(4-(methoxy)benzylidene)cyclohexan-1-one-(2-methoxyethyl)oxime] | significant inhibitory effect | significant inhibitory effect |
| Fc1cccc(CON=C2/C(=C/c3ccccc3C(F)(F)F)CCC/C2=C\c2ccccc2C(F)(F)F)c1 [Example 18, 2,6-(E,E)-(2-(trifluoromethyl)benzylidene)cyclohexan-1-one-3-fluorobenzyl oxime] | – | significant inhibitory effect |
| CCCON=C1/C(=C/c2ccccc2)CCC/C1=C\c1ccccc1 [Example 32, 2,6-(E,E)-(benzylidene)cyclohexan-1-one propyl oxime] | significant inhibitory effect | significant inhibitory effect |
| Fc1ccc(CCON=C2/C(=C/c3ccccc3C(F)(F)F)CCC/C2=C\c2ccccc2C(F)(F)F)cc1 [Example 25, 2,6-(E,E)-(2-(trifluoromethyl)benzylidene)cyclohexan-1-one-4-(fluorophenethyl)oxime] | significant inhibitory effect | significant inhibitory effect |
| CN1CCN(CCCON=C2/C(=C/c3ccccc3C(F)(F)F)CCC/C2=C\c2ccccc2C(F)(F)F)CC1 [Example 30, 2,6-(E,E)-(2-(trifluoromethyl)benzylidene)cyclohexan-1-one-(3-(4-methylpiperazin-1-yl)propyl)oxime] | – | significant inhibitory effect |
| Clc1ccc(/C=C2\CCC/C(=C\c3ccc(Cl)c(Cl)c3)C2=NOCCN2CCOCC2)cc1Cl [Example 39, 2,6-(E,E)-(3,4-(dichloro)benzylidene)cyclohexan-1-one-2-(morpholinoethyl)oxime] | significant inhibitory effect | significant inhibitory effect |
| Fc1ccc(CON=C2/C(=C/c3ccccc3C(F)(F)F)CCC/C2=C\c2ccccc2C(F)(F)F)cc1 [Example 19, 2,6-(E,E)-(2-(trifluoromethyl)benzylidene)cyclohexan-1-one-4-fluorobenzyl oxime] | significant inhibitory effect | – |
